In article PMC8504577, “Evaluation of a Clinically Relevant Drug–Drug Interaction Between Rosuvastatin and Clopidogrel and the Risk of Hepatotoxicity” (Frontiers in Pharmacology, 2021):
pIC50: −log10 of the molar value.

Columns and labels:
BCRP [1] = biological target: T1, BCRP (Homo sapiens, UniProt Q9UNQ0); assay: Inhibition of RSV transport in BCRP-expressing membrane vesicles; format: biochemical; parameters: purchased GenoMembrane Co., Ltd. (Yokohama, Japan) GM0008; host or cells: Sf9 insect cells
T1 sequence (Q9UNQ0 1-655): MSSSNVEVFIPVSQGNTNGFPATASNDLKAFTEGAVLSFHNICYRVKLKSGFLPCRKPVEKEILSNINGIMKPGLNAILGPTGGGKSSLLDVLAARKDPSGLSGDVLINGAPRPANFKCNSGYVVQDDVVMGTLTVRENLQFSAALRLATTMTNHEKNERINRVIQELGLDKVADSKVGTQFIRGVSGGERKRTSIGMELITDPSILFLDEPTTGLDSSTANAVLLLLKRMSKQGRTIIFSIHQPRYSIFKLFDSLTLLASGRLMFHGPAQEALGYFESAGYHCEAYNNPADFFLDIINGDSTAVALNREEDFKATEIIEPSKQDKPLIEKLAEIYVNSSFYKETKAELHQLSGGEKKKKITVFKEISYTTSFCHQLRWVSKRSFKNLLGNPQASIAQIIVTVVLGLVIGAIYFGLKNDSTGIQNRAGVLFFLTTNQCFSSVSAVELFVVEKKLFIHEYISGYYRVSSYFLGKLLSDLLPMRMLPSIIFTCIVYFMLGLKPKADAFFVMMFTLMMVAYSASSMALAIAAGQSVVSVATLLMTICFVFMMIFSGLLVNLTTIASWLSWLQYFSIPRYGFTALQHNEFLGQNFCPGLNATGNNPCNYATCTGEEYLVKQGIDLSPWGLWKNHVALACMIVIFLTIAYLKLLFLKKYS
Experimental: (§1) The vesicular transport activity was determined by the 96-well rapid filtration method in BCRP- and MRP2-expressing membrane vesicles. […] Meanwhile, 5 μL RSV (final concentration, 1 μM) and 20 μL reagent C2 were pre-incubated at 37°C for 5 min. Then, the transport was initiated by mixing them in a 50 μL reaction system and incubated for the designated time at 37°C. The transport was terminated by adding 200 μL of cold buffer B2 at 4°C. Then, the mixture was filtered using a 96-well filter plate. After washing the vesicles five times with 200 μL of cold buffer B2 at 4°C, the vesicles were lysed with 50 μL of 80% […] twice and then centrifuged at 2000 rpm/min for 2 min. Lysates were collected and then centrifuged at 12,000 rpm/min for 5 min. The supernatants were injected onto the LC-MS/MS. The same procedures were applied to AMP-containing samples except that reagent D2 was used instead of reagent C2. All experiments were performed in quadruplicate.
Statistical analysis was performed using SPSS ver. 22.0 (IBM, Chicago, IL, United States).

BCRP [2] = biological target: T1, BCRP; details: CP at 75 and 300 mg
OATP1B1 [3] = biological target: T2, OATP1B1 (Homo sapiens, UniProt Q9Y6L6); assay: cell-based
T2 sequence (Q9Y6L6 1-691): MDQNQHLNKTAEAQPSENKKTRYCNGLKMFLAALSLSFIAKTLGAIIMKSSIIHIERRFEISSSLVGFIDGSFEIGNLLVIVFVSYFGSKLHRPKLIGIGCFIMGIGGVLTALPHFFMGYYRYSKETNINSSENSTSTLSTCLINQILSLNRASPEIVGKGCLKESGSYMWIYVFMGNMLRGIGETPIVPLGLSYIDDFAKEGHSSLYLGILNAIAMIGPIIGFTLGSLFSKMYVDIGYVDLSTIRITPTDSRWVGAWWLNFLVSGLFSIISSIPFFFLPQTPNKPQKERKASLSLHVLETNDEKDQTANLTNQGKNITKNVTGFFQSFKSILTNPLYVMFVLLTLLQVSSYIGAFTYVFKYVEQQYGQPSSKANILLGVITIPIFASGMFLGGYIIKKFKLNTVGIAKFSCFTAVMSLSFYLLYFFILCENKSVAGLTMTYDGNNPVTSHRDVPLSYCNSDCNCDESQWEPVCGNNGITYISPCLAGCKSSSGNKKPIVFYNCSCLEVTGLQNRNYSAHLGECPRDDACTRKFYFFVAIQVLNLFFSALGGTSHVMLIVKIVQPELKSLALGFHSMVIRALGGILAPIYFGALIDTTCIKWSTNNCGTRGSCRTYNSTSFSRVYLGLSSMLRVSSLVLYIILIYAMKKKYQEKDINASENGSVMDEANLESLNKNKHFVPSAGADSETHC
Experimental: The OATP1B1, OATP1B3, and mock cells were cultured in the DMEM medium containing 10% fetal bovine serum, penicillin–streptomycin solution (100 U/mL and 0.1 mg/ml), and 0.5 mg/ml geneticin at 37°C in the presence of 5% CO2. The cells were seeded in a 24-well plate at a density of 4×10^5 cells/well and grown for 80–90% confluence. […] After washing the cells three times with transporter buffer at 4°C, the cells were lysed with liquid nitrogen. The lysates were precipitated with methanol and centrifuged at 12,000 rpm at 4°C for 5 min. The supernatant was analyzed by LC-MS/MS. Protein concentration was determined using the Pierce® BCA Protein Assay Kit. All experiments were performed in triplicate.
Phoenix WinNonlin® 7.1 (Pharsight Corporation, Mountain View, CA, United States) was used to calculate the pharmacokinetic parameters by the noncompartmental method. IC50 values were obtained by a computer-generated nonlinear least squares fit using GraphPad Prism 8.1 (GraphPad Software, San Diego, CA, United States). Statistical analysis was performed using SPSS ver. 22.0 (IBM, Chicago, IL, United States). The results are presented as mean ± S.D., unless otherwise stated. After testing for the homogeneity of variance, statistical analysis was performed with a one-way ANOVA followed by the LSD post hoc test or unpaired Student’s t-test. A probability (p) of less than 0.05, 0.01, and 0.001 was considered to be statistically significant, highly significant, and extremely significant, respectively.

BCRP [4] = details: read-out: IC50 BCRP; BCRP-mediated RSV transport, Caco-2 cells; ref Elsby et al. (2016); cited from earlier work
[5] = system: sodium taurocholate cotransporting polypeptide (NTCP); details: ref Elsby et al., 2016; cited from earlier work
OATP1B1 [6] = system: OATP1B1; parameters: method as in Elsby et al., 2016; details: ref Elsby et al., 2016; cited from earlier work
OATP1B3 = system: OATP1B3; parameters: method as in Elsby et al., 2016; details: ref Elsby et al., 2016; cited from earlier work
MRP2 = biological target: T3, MRP2 (Homo sapiens, UniProt Q92887); assay: RSV uptake into MRP2-expressing membrane vesicles; format: biochemical; details: ATP vs AMP; data not shown
T3 construct: purchased GenoMembrane Co., Ltd. (Yokohama, Japan) GM0001
Experimental: as §1

T3 sequence (Q92887 whole entry): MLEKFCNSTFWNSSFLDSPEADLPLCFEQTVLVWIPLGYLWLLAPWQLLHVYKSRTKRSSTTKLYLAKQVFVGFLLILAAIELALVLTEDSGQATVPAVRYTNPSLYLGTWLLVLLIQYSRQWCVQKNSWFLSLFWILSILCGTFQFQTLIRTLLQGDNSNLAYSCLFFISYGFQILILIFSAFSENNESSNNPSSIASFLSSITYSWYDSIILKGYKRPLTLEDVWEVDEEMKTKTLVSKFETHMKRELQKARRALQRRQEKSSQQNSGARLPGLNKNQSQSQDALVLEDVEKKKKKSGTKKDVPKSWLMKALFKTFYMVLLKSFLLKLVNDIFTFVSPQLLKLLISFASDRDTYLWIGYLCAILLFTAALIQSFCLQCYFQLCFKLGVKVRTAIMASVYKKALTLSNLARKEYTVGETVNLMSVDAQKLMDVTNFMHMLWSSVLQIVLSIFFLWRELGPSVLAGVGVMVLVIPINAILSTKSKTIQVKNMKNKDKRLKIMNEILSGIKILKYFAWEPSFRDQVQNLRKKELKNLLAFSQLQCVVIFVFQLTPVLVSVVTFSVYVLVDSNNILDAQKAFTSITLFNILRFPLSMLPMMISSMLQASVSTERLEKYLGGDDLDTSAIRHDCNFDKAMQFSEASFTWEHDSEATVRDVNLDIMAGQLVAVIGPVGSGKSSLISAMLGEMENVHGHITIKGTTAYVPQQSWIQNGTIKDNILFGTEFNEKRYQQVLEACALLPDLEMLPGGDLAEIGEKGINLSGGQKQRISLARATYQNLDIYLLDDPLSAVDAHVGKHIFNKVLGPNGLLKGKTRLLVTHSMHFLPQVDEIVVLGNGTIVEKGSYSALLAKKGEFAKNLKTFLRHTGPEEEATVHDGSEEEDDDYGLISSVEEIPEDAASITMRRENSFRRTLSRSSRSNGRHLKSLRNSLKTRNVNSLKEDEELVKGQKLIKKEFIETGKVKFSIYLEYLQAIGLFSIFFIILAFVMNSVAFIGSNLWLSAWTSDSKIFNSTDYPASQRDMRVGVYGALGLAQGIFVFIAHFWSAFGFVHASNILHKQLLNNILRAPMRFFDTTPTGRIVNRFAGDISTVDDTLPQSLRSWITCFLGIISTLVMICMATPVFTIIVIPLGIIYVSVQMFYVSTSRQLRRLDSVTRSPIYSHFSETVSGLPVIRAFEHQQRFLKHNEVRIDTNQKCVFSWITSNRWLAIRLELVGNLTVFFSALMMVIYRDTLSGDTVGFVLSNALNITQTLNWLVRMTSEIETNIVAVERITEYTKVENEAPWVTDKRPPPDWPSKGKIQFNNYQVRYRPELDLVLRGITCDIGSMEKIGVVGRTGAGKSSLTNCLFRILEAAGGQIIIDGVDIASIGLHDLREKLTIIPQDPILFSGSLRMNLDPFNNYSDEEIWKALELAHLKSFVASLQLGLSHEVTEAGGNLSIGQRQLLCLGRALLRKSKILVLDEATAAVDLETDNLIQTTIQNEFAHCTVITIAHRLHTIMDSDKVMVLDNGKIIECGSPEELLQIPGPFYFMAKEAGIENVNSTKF

Structure (SMILES) | pIC50 (BCRP [1]; IC50 BCRP-mediated RSV transport, 1 μM RSV, membrane vesicles) | inhibition at 0.001 μM (BCRP [1]; human) | [I2]/IC50 BCRP ratio (BCRP [2]) | pIC50 (OATP1B1 [3]) | pIC50 (BCRP [4]) | Individual contribution of NTCP to hepatic uptake [5] | Individual contribution of OATP1B1 to hepatic uptake (OATP1B1 [6]) | Individual contribution of OATP1B3 to hepatic uptake (OATP1B3) | Uptake ratio into MRP2-expressing membrane vesicles (MRP2)
COC(=O)[C@H](c1ccccc1Cl)N1CCc2sccc2C1 [CP, clopidogrel] | ~9.00 | 56.9% | > 10 | 4.56 | 4.20 |  |  |  | 
CC(C)c1nc(N(C)S(C)(=O)=O)nc(-c2ccc(F)cc2)c1/C=C/[C@@H](O)C[C@@H](O)CC(=O)O [RSV, rosuvastatin] |  |  |  |  |  | 0.21 | 0.38 | 0.11 | less than 2
